Measurements: patent US20140341916A1, “THERAPEUTIC COMBINATIONS AND METHODS OF TREATING MELANOMA” (Genentech, Inc., priority 2011, published 2014)

How the values were obtained:
ETBR surface protein = experiment: Surface ETBR protein in live melanoma cells, FACS; format: cell-based, human; conditions: 24 h
Experimental: (§1) Melanoma cell lines UACC-257X2.2, A2058, COLO 829, IPC-298 (ATCC) were treated with a BRAF inhibitor drug (“BRAFi”), specifically RG7204 at varying concentrations by adding the appropriate drug volume to cells in culture for 24 h on four-well dishes.
(§2) To determine whether the observed increases in total ETBR protein level due to BRAFi treatment also results in an increase of ETBR surface protein levels, a fluorescence-activated cell sorting (FACS) analysis was performed. Cells were harvested in PBS with 2.5 mmol/L EDTA and washed in PBS buffer containing 1% FBS. All subsequent steps were carried out at 4° C. Cells were incubated for 1 hour with 3 μg/mL anti ETBR antibody Hu5E9v1, followed by anti-human IgG fluorescent detection reagent (A11013; Invitrogen). Cells were then analyzed with a FACS Calibur flow cytometer (BD Biosciences). The results for UACC-257X2.2 are shown in FIG. 4C, the results for A2058 are shown in FIG. 8C, and the results for COLO 829 are shown in FIG. 6C.
(§3) Melanoma cell lines A2058, COLO 829, SK23-MEL and IPC-298 (ATCC) were treated with a MEK inhibitor drug (“MEKi-973” or “MEKi-623”), at varying concentrations (0 μM, 0.01 μM, 0.1 μM or 1 μM) by adding the appropriate drug volume to cells in culture for 24 h on four-well dishes.
as §2, with “MEKi” for “BRAFi”, “performed as described above.” for “performed.”, “Biosciences).” for “Biosciences). The results for UACC-257X2.2 are shown in FIG. 4C, the results for A2058 are shown in FIG. 8C, and the results for COLO 829 are shown in FIG. 6C.”

ETBR transcript [1] = experiment: PD study, ETBR transcript in A2058 tumors, Taqman, normalized to Hprt1; format: in vivo, mice; conditions: MEKi-973 5 mpk and 10 mpk orally once a day for 3 days
Experimental: A2058 or COLO 829 tumors were grown to an average size of approximately 200 mm^3, whereupon animals were randomized into groups of 5-6 each. For the BRAFi PD study, an appropriate vehicle control (Klucel LF) or RG7204 at doses of 10 mpk or 30 mpk were administered twice a day for 3 days (FIG. 27A). For the MEKi PD study, an appropriate vehicle control or MEKi-973 at doses of 5 mpk and 10 mpk were administered orally once a day for 3 days (FIG. 27B). Flash frozen tumors harvested at end of study were homogenized and processed for RNA and/or protein. Taqman assays were set up using reagents from Applied Biosystems (ABI, Foster City, Calif.) and assayed using 7500 Real Time PCR machine and software from ABI. Primer-probe sets were designed with primers flanking a fluorogenic probe dual labeled with Reporter dye FAM and quencher dye TAMRA. ETBR transcript levels in the tumors were normalized against transcript levels of reference genes such as Hprt1 (hypoxanthine phosphoribosyltransferase 1) or GAPDH (glyceraldehyde 3 phosphate dehydrogenase) using primer and probe sets that were specific to the human homologs of these genes.

ETBR total protein = ETBR total protein in melanoma cell lines, Western blot; format: cell-based, human; conditions: 24 h
Experimental: as §1
To test whether the increase in ETBR transcripts due to BRAFi treatment also results in any changes in ETBR total protein levels, Western blot experiments were performed on the same cell lines treated with BRAFi RG7204 as described above. For Western blotting, the following reagents were used: for detection of proteins: an anti-ETBR in-house generated monoclonal antibody 1H1.8.5, anti-Phospho-p44/42 MAPK (Erk1/2) (Thr202/Tyr204) antibody (9101, Cell Signaling Technology), anti-p44/42 MAPK (Erk1/2) antibody (9102, Cell Signaling Technology) and as controls, a rabbit polyclonal anti-GAPDH (glyceraldehyde-3-phosphate dehydrogenase) antibody (PA1-987; Affinity Bioreagents) and mouse monoclonal anti-β-Tubulin antibody (556321, BD Pharmingen). The results for UACC-257X2.2 are shown in FIG. 4B, the results for A2058 are shown in FIG. 8B, the results for COLO 829 are shown in FIG. 6B and the results for IPC-298 are shown in FIG. 10.
as §3
To test whether the increase in ETBR transcripts due to MEKi treatment also results in any changes in ETBR total protein levels, Western blot experiments were performed on cell lines COLO829 (BRAF^V600E), A2058 (BRAF^V600E), SK23-MEL (BRAF^WT/RAS^WT), or IPC-298 (BRAF^WT/RAS^[…]) which were treated with MEKi-973 as described above. For Western blotting, the following reagents were used: for detection of proteins: an anti-ETBR in-house generated monoclonal antibody 1H1.8.5, anti-Phospho-p44/42 MAPK (Erk1/2) (Thr202/Tyr204) antibody (9101, Cell Signaling Technology), anti-p44/42 MAPK (Erk1/2) antibody (9102, Cell Signaling Technology) and as controls, a rabbit polyclonal anti-GAPDH (glyceraldehyde-3-phosphate dehydrogenase) antibody (PA1-987; Affinity Bioreagents) and mouse monoclonal anti-β-Tubulin antibody (556321, BD Pharmingen). The results for A2058 are shown in FIG. 15A treated with MEKi-623 and 15B treated with MEKi-973, the results for COLO 829 are shown in FIG. 12A treated with MEKi-623 and 12B treated with MEKi-973, the results for SK23-MEL are shown in FIG. 19A treated with MEKi-623 and 19B treated with MEKi-973, and the results for IPC-298 are shown in FIG. 22A treated with MEKi-623 and 22B treated with MEKi-973.

ETBR transcript [2] = experiment: ETBR transcript level in melanoma cell lines, Taqman, normalized to RPL19; format: cell-based, human; conditions: A2058 cells, 24 h
Experimental: as §1
(§4) To determine the effect of BRAFi on ETBR and control ribosomal protein L19 (RPL19) transcript levels, the following experiments were performed. Cells treated with RG7204 for 24 h were harvested from plates by scraping and processed for total RNA using Qiashredder and RNeasy mini kits (79654, 74104 from Qiagen, Valencia, Calif.). Taqman assays were set up using reagents from Applied Biosystems (ABI, Foster City, Calif.) and assayed using 7500 Real Time PCR machine and software from ABI. Primer-probe sets were designed with primers flanking a fluorogenic probe dual labeled with Reporter dye FAM and quencher dye TAMRA.
as §3
as §4, with “MEKi” for “BRAFi”, “ETBR” for “ETBR and control ribosomal protein L19 (RPL19)”, “performed as described above in Example 3.” for “performed.”, “either MEKi-973” for “RG7204”

O=C(c1ccc(F)c(F)c1Nc1ccc(I)cc1F)N1CC(O)([C@@H]2CCCCN2)C1 [MEKi-973, (S)-(3,4-difluoro-2-((2-fluoro-4-iodophenyl)amino)phenyl)(3-hydroxy-3-(piperidin-2yl)azetidin-1-yl)methanone]
surface level of ETBR protein vs untreated control cells (ETBR surface protein; A2058 cells): appears to increase the surface levels of ETBR protein
surface level of ETBR protein vs untreated control cells (ETBR surface protein; COLO 829 cells): appears to increase the surface levels of ETBR protein
surface level of ETBR protein vs untreated control cells (ETBR surface protein; IPC-298 cells): appears to increase the surface levels of ETBR protein
surface level of ETBR protein vs untreated control cells (ETBR surface protein; SK23-MEL cells): appears to increase the surface levels of ETBR protein
ETBR mRNA in tumors vs control vehicle (ETBR transcript [1]): induces ETBR mRNA in vivo
ETBR total protein level vs untreated control cells (ETBR total protein; A2058 cells (BRAF V600E)): appears to increase the ETBR total protein levels
ETBR total protein level vs untreated control cells (ETBR total protein; COLO 829 cells (BRAF V600E)): appears to increase the ETBR total protein levels
ETBR total protein level vs untreated control cells (ETBR total protein; IPC-298 cells (BRAF wild-type, RAS mutant)): appears to increase the ETBR total protein levels
ETBR total protein level vs untreated control cells (ETBR total protein; SK23-MEL cells (BRAF WT/RAS WT)): appears to increase the ETBR total protein levels
ETBR transcript vs untreated control cells (ETBR transcript [2]): appears to increase the ETBR transcripts
